Test results: ChEMBL document CHEMBL1201862, “PubChem BioAssay data set” (2004)
Active and inactive are the calls of the source.

Assays:
[1] = HPDE-C7 pancreatic duct cell viability loss – fluorescence, HTS (AID 430); format: functional, cell-based; settings: Homo sapiens
[2] = microbe, parasite or virus in culture; format: functional; settings: Mycobacterium tuberculosis
[3] = viability loss of HPDE-C7K cells – cell-based, fluorescence, HTS, primary screen (AID 431); format: functional; settings: Homo sapiens
[4] = target: T1, Calpain-2 catalytic subunit (Sus scrofa, UniProt P43367); assay: m-calpain protease blockers, concentration series – biochemical, fluorogenic peptide substrate, dose response (AID 1420); format: functional
T1 sequence (P43367 whole entry): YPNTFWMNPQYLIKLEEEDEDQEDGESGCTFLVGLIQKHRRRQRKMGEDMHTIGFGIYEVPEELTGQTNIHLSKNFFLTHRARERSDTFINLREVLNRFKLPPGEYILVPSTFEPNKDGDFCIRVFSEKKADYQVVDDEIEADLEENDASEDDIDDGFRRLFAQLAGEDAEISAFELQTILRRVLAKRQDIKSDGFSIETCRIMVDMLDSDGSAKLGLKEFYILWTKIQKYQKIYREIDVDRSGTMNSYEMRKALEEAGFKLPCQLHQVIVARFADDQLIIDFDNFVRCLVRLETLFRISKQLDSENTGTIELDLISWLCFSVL

[5] = target: T2, Cysteine protease ATG4B (Homo sapiens, UniProt Q9Y4P1); format: functional;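 further: Fluorescence-based dose-response confirmation assay measuring inhibition of ATG4B activity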
T2 sequence (Q9Y4P1 whole entry): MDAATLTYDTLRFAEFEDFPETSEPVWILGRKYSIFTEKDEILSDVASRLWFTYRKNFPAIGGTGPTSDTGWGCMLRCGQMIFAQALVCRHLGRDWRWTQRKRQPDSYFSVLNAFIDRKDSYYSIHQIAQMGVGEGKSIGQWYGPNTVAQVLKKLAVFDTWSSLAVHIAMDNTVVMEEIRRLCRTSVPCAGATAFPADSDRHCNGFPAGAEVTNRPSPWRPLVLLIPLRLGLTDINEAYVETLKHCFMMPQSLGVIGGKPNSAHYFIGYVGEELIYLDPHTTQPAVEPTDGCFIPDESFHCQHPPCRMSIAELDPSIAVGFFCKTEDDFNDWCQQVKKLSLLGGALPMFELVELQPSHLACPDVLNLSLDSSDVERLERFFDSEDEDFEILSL

[6] = target: Heat shock protein HSP 90-alpha (Homo sapiens, UniProt P07900); format: functional, organism-based
[7] = target: Phospholipase A2 (Homo sapiens, UniProt P04054); format: functional;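 further: confirmatory dose-response counterscreen on phospholipase A2, testing hits that came from an ultra-high-throughput screen for ATG4B inhibitors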
Phospholipase A2, sequence (P04054 whole entry): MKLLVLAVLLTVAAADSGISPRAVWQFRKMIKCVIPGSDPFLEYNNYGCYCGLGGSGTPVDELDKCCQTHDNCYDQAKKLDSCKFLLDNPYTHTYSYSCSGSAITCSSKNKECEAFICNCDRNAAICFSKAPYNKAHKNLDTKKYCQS

[8] = target: Peroxisome proliferator-activated receptor gamma/Nuclear receptor coactivator 2 (Homo sapiens, UniProt P37231); format: functional;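 further: agonist potency for raising coactivator recruitment to the receptor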
Peroxisome proliferator-activated receptor gamma/Nuclear receptor coactivator 2, sequence (P37231 whole entry): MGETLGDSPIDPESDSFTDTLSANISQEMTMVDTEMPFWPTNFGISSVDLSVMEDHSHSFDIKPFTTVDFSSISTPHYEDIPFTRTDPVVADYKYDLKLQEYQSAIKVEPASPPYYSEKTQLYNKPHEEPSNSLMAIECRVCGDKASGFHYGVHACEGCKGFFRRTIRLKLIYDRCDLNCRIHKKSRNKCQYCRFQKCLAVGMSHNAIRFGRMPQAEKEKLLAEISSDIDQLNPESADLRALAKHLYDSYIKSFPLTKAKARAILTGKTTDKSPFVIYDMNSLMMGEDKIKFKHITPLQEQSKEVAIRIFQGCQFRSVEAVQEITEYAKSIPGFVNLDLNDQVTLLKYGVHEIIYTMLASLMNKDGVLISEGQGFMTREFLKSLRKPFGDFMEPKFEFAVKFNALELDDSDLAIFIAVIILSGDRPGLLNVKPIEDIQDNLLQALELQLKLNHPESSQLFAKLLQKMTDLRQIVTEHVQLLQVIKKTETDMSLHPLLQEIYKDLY
Peroxisome proliferator-activated receptor gamma/Nuclear receptor coactivator 2, sequence (Q15596 whole entry, further chain): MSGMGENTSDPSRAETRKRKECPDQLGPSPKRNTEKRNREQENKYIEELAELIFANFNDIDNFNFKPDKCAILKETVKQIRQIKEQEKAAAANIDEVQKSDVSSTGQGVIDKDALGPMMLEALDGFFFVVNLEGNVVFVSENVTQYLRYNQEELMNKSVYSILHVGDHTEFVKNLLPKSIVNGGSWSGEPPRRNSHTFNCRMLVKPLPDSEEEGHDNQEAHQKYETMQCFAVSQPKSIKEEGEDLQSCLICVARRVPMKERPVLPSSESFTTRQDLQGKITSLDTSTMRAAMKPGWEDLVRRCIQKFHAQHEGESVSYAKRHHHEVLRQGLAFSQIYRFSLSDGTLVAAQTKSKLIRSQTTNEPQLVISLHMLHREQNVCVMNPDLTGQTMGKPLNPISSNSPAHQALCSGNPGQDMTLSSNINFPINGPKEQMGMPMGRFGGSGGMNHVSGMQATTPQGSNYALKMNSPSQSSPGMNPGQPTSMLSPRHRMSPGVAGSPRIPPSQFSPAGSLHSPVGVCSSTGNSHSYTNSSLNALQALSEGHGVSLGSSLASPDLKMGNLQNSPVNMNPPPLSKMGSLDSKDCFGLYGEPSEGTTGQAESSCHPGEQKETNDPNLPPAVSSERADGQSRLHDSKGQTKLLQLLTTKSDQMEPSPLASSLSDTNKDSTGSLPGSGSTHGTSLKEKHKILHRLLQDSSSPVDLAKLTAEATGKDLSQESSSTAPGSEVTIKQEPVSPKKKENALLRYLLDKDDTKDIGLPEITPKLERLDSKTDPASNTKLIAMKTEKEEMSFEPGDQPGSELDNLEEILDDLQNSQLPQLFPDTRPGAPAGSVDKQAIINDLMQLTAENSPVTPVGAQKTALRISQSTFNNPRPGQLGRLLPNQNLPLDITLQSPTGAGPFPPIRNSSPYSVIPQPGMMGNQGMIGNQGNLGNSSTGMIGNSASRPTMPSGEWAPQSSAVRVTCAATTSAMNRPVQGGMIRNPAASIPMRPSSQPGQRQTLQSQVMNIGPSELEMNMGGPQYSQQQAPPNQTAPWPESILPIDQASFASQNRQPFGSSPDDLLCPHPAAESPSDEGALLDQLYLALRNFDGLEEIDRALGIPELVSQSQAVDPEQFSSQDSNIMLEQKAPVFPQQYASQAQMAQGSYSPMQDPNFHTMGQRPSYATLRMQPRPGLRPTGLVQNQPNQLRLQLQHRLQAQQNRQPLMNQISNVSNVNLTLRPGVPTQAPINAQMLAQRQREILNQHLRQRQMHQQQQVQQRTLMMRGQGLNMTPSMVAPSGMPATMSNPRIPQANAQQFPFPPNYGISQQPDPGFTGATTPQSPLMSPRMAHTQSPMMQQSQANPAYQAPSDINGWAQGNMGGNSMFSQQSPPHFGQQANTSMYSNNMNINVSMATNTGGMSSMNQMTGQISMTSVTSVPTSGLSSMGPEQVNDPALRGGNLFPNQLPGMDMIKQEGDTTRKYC

[9] = target: Peroxisome proliferator-activated receptor gamma/Nuclear receptor coactivator 1 (Homo sapiens, UniProt P37231); format: functional;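 further: agonist potency as compounds enhance coactivator SRC-1 recruitment to PPARgamma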
Peroxisome proliferator-activated receptor gamma/Nuclear receptor coactivator 1, sequence (P37231 whole entry): as the sequence (P37231 whole entry) above
Peroxisome proliferator-activated receptor gamma/Nuclear receptor coactivator 1, sequence (Q15788 whole entry, further chain): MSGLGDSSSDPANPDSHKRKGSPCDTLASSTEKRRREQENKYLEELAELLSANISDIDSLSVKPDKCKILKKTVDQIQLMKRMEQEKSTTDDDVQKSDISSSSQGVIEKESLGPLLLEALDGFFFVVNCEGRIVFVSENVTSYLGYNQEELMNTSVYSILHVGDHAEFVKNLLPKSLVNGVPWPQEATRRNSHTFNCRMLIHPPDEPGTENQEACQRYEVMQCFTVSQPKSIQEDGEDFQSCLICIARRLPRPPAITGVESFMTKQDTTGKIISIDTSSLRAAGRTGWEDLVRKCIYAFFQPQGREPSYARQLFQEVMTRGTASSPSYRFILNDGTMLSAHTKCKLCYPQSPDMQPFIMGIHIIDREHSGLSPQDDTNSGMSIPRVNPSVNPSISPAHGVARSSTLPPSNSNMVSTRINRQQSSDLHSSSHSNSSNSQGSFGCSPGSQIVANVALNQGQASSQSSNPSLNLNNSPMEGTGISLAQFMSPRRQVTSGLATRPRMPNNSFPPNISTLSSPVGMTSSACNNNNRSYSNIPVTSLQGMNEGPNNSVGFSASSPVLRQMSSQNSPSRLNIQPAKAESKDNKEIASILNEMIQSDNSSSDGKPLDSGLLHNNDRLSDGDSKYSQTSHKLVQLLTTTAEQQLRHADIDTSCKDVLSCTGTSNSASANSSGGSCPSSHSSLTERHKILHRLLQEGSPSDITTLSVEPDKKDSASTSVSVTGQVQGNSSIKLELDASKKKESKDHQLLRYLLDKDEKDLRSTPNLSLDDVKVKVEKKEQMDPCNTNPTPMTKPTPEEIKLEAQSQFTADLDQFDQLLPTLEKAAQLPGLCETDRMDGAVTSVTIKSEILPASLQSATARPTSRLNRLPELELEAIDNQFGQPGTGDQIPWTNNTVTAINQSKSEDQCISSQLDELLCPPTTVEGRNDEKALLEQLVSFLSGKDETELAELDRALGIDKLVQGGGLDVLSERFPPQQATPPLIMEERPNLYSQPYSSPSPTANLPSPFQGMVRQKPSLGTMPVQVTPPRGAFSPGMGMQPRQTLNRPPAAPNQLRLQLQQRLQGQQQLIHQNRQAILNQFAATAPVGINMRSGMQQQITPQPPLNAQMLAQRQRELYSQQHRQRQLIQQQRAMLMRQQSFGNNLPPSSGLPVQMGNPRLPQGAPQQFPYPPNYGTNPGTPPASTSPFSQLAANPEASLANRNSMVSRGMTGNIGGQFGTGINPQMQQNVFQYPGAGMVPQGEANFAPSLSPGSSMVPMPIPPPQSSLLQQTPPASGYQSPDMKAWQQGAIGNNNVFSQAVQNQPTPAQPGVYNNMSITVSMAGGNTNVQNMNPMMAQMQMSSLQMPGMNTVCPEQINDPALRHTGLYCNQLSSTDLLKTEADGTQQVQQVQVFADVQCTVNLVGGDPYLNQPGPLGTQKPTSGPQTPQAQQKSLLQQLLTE

[10] = target: Peroxisome proliferator-activated receptor gamma/Nuclear receptor coactivator 3 (Homo sapiens, UniProt P37231); format: functional;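 further: agonist potency for raising coactivator recruitment to the receptor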
[11] = target: T3, Protein skinhead-1 (Caenorhabditis elegans, UniProt P34707); format: functional
T3 sequence (P34707 whole entry): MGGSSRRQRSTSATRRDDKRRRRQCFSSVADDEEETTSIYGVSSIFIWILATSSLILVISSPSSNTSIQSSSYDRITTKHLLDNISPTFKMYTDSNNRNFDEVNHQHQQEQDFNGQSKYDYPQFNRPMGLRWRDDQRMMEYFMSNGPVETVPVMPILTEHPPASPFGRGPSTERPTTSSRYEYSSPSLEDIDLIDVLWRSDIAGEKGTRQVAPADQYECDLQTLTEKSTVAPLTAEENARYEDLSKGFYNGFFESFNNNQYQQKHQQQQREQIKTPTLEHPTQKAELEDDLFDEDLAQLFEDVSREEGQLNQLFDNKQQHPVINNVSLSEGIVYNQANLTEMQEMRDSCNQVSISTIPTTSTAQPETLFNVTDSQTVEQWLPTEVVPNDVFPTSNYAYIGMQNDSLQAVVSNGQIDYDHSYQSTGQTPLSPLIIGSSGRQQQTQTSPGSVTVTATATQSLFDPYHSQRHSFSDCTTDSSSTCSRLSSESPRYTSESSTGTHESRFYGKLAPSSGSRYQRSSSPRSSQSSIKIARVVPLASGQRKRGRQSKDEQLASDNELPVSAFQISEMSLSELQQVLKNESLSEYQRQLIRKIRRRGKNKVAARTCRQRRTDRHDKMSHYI

[12] = luciferase reporter signal suppression in cells – H4 neuroglioma cells, luminescence, dose response (AID 1990); format: functional, cell-based
[13] = luciferase reporter signal reduction – luminescence, H4-C neuroglioblastoma cells, dose response (AID 2458); format: functional, cell-based;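 further: H4 neuroglioblastoma cells stably carrying a luciferase reporter gene fusion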
[14] = cells; format: functional, cell-based
[15] = Luminescence Cell-Based Dose Response HTS to Identify Inhibitors of 5'UTR Stem-Loop Driven Prion Protein mRNA Translation in H4 Neuroglioblastoma Cells. [Related pubchem assays: 1827 (Project Summary), 1813 (Primary HTS)]; format: functional
[16] = alpha-synuclein stem-loop luciferase translation blockers – H4 neuroglioma cells, luminescence, confirmation (AID 1988); format: functional, cell-based
[17] = alpha-synuclein stem-loop translation blockers – luminescence, H4 neuroglioblastoma cells, dose confirmation, confirmation (AID 2454); format: functional, cell-based;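 further: H4 neuroglioblastoma cells carrying an alpha-synuclein 5'UTR luciferase reporter; potency for inhibition of the luciferase signal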
[18] = viability of uninfected HEp-2 cells – cell-based, HTS, cytotoxicity control for RSV inhibitor project, dose response (AID 2410); format: functional; settings: human respiratory syncytial virus
[19] = target: T4, Corticotropin-releasing factor receptor 2/Corticotropin-releasing factor-binding protein (Homo sapiens, UniProt P24387+Q13324); assay: activators of CRF receptor 2 with binding protein – uHTS hits, confirmation (AID 602473); format: functional; settings: read-out: EC50_Mean
T4 sequence (Q13324 whole entry): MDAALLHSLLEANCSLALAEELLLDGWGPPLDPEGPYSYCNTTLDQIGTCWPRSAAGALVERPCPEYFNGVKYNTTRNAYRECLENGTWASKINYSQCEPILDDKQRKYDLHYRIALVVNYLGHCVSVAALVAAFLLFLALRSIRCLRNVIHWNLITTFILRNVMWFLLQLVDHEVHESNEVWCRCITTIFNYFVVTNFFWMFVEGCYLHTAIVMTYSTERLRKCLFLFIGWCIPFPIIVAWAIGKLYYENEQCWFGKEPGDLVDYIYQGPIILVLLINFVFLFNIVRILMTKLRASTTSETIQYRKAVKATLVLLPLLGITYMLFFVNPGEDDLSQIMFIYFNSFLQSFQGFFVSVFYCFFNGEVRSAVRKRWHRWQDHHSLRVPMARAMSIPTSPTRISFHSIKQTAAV
T4 sequence (P24387 whole entry): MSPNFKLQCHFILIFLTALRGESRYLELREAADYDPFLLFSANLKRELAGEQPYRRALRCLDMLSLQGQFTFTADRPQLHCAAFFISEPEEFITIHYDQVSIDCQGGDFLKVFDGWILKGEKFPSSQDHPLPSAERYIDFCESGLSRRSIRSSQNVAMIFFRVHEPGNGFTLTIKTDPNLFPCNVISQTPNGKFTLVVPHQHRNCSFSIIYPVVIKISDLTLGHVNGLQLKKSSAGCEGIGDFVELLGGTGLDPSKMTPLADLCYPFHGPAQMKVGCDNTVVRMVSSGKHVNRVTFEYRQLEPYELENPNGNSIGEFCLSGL

[20] = cells
[21] = target: T4, Corticotropin-releasing factor receptor 2/Corticotropin-releasing factor-binding protein; assay: Dose Response confirmation of uHTS hits for small molecule antagonists of the CRF-binding protein and CRF-R2 receptor complex.; format: functional; settings: read-out: IC50_Mean
[22] = Luminescence Cell-Based Dose Response HTS to Identify Activators of Luciferase Translation or Activity in H4 […] Cells. [Related pubchem assays: 1829 (Project Summary), 1814 (Primary HTS)]; format: functional
[23] = tested on: H4; assay: Luminescence Cell-Based Dose Response HTS to Identify Activators of 5'UTR Stem-Loop Driven Prion Protein mRNA Translation in H4 Neuroglioblastoma Cells. [Related pubchem assays: 1829 (Project Summary), 1814 (Primary HTS)]; format: functional; settings: Homo sapiens
[24] = tested on: Vero; assay: cells; format: functional, cell-based; settings: Chlorocebus sabaeus
[25] = tested on: Vero; assay: cells; format: functional; settings: Chlorocebus sabaeus

SMILES: c1ccc(-c2ccc(C(c3ccccc3)n3ccnc3)cc2)cc1 (stereo unspecified) [BIFONAZOLE]
- EC50 [1]: > 20 µM (not active)
- CC50 [2]: > 40 µM (active)
- EC50 [3]: 17.8 µM (active)
- IC50 [4]: 14.7 µM (not active)
- IC50 [5]: 8.5 µM (active)
- AC50 [6]: 1.06 µM (active)
- IC50 [7]: 8.89 µM (active)

SMILES: CSC1=NC(C)(C)CC2(CC(c3ccccc3)Oc3cc(O)ccc32)N1 (stereo unspecified)
- EC50 [8]: > 79.4 µM (not active)
- EC50 [9]: > 79.4 µM (not active)
- EC50 [10]: > 79.4 µM (not active)
- IC50 [11]: > 100 µM (inactive)

SMILES: Cn1c2ccc(Br)cc2c2nnc(SCC(=O)O)nc21
- EC50 [12]: > 60 µM (not active)
- EC50 [13]: > 12 µM (not active)
- EC50 [14]: > 12 µM (not active)
- EC50 [15]: < 0.1 µM (active)
- EC50 [16]: 29.3 µM (active)
- EC50 [17]: 9.55 µM (active)

SMILES: CCOC(=O)c1ccc(NC(=S)N2CCSC2c2ccc(Br)cc2)cc1 (stereo unspecified)
- CC50 [18]: 14 µM (active)
- EC50 [19]: 4.38 µM (active)
- IC50 [20]: 11 µM (active)

SMILES: COc1ccc(NS(=O)(=O)c2c(C)n(C)c(=O)n(C)c2=O)cc1OC
- EC50 [8]: > 79.4 µM (not active)
- EC50 [9]: > 79.4 µM (not active)
- EC50 [10]: > 79.4 µM (not active)
- IC50 [21]: > 47.1 µM (inactive)
- EC50 [19]: > 53 µM (inactive)

SMILES: CCN(CC)C(=O)N1c2ccccc2C=Cc2ccccc21
- CC50 [18]: 9.46 µM (active)
- EC50 [22]: 30 µM (active)
- EC50 [23]: > 120 µM (not active)
- IC50 [24]: 4.41 µM (active)
- CC50 [25]: > 25 µM (active)
- IC50 [20]: 2.02 µM (active)
